Test results published in ChEMBL document CHEMBL1154899, “Synthesis and biological evaluation of caffeic acid 3,4-dihydroxyphenethyl ester” (J Nat Prod, 2010).

Assays:
Type in all cases: functional
HOP-92 [1] = experiment: Antiproliferative activity against human HOP92 cells assessed as cell growth at 50 uM by SRB assay; conditions: read-out: Activity
SNB-19 = experiment: Antiproliferative activity against human SNB19 cells assessed as cell growth at 50 uM by SRB assay; conditions: read-out: Activity
LOX IMVI [2] = experiment: Antiproliferative activity against human LOXIMVI cells assessed as cell growth at 50 uM by SRB assay; conditions: read-out: Activity
Malme-3M [3] = experiment: Antiproliferative activity against human MALME-3M cells assessed as cell growth at 50 uM by SRB assay; conditions: read-out: Activity
IGROV-1 = experiment: Antiproliferative activity against human IGROV1 cells assessed as cell growth at 50 uM by SRB assay; conditions: read-out: Activity
SF-268 [4] = experiment: Antiproliferative activity against human SF268 cells assessed as cell growth at 5 uM by SRB assay; conditions: read-out: Activity
LOX IMVI [5] = experiment: Antiproliferative activity against human LOXIMVI cells assessed as cell growth at 5 uM by SRB assay; conditions: read-out: Activity
A498 [6] = experiment: Antiproliferative activity against human A498 cells assessed as cell growth at 5 uM by SRB assay; conditions: read-out: Activity
TK-10 = experiment: Antiproliferative activity against human TK10 cells assessed as cell growth at 50 uM by SRB assay; conditions: read-out: Activity
DU-145 [7] = experiment: Antiproliferative activity against human DU145 cells assessed as cell growth at 50 uM by SRB assay; conditions: read-out: Activity
MCF7 = experiment: Antiproliferative activity against human MCF7 cells assessed as cell growth at 50 uM by SRB assay; conditions: read-out: Activity
[8] = Antiproliferative activity against human Hs 578T cells assessed as cell growth at 50 uM by SRB assay; conditions: read-out: Activity
MDA-MB-435 [9] = experiment: Antiproliferative activity against human MDA-MB-435 cells assessed as cell growth at 50 uM by SRB assay; conditions: read-out: Activity
ACHN = experiment: Antiproliferative activity against human ACHN cells assessed as cell growth at 500 uM by SRB assay; conditions: read-out: Activity
DU-145 [10] = experiment: Antiproliferative activity against human DU145 cells assessed as cell growth at 500 uM by SRB assay; conditions: read-out: Activity
MDA-MB-231 = experiment: Antiproliferative activity against human MDA-MB-231 cells assessed as cell growth at 500 uM by SRB assay; conditions: read-out: Activity
BT-549 = experiment: Antiproliferative activity against human BT549 cells assessed as cell growth at 5 uM by SRB assay; conditions: read-out: Activity
CCRF-CEM = experiment: Antiproliferative activity against human CCRF-CEM cells assessed as cell growth at 50 uM by SRB assay; conditions: read-out: Activity
K562 = experiment: Antiproliferative activity against human K562 cells assessed as cell growth at 50 uM by SRB assay; conditions: read-out: Activity
SW-620 = experiment: Antiproliferative activity against human SW620 cells assessed as cell growth at 5 mM by SRB assay; conditions: read-out: Activity
U-251 [11] = experiment: Antiproliferative activity against human U251 cells assessed as cell growth at 500 uM by SRB assay; conditions: read-out: Activity
LOX IMVI [12] = experiment: Antiproliferative activity against human LOXIMVI cells assessed as cell growth at 500 uM by SRB assay; conditions: read-out: Activity
Malme-3M [13] = experiment: Antiproliferative activity against human MALME-3M cells assessed as cell growth at 500 uM by SRB assay; conditions: read-out: Activity
OVCAR-5 = experiment: Antiproliferative activity against human OVCAR5 cells at 50 uM by SRB assay
NCI-H23 = experiment: Antiproliferative activity against human NCI-H23 cells by SRB assay
COLO 205 = experiment: Antiproliferative activity against human COLO205 cells by SRB assay
HCT-15 = experiment: Antiproliferative activity against human HCT15 cells by SRB assay
SF-268 [14] = experiment: Antiproliferative activity against human SF268 cells by SRB assay
SF-295 = experiment: Antiproliferative activity against human SF295 cells by SRB assay
A498 [15] = experiment: Antiproliferative activity against human A498 cells by SRB assay
[16] = Antiproliferative activity against human Hs 578T cells by SRB assay
SK-MEL-28 = experiment: Antiproliferative activity against human SK-MEL-28 cells assessed as cell growth at 0.5 uM by SRB assay; conditions: read-out: Activity
786-0 = experiment: Antiproliferative activity against human 786-0 cells assessed as cell growth at 0.5 uM by SRB assay; conditions: read-out: Activity
CAKI-1 = experiment: Antiproliferative activity against human Caki1 cells assessed as cell growth at 0.5 uM by SRB assay; conditions: read-out: Activity
DU-145 [17] = experiment: Antiproliferative activity against human DU145 cells assessed as cell growth at 0.5 uM by SRB assay; conditions: read-out: Activity
[18] = Antiproliferative activity against human […] cells assessed as cell growth at 0.5 uM by SRB assay; conditions: read-out: Activity
HCC 2998 = experiment: Antiproliferative activity against human HCC2998 cells assessed as cell growth at 0.5 uM by SRB assay; conditions: read-out: Activity
SF-268 [19] = experiment: Antiproliferative activity against human SF268 cells assessed as cell growth at 0.5 uM by SRB assay; conditions: read-out: Activity
U-251 [20] = experiment: Antiproliferative activity against human U251 cells assessed as cell growth at 0.5 uM by SRB assay; conditions: read-out: Activity
MDA-MB-435 [21] = experiment: Antiproliferative activity against human MDA-MB-435 cells assessed as cell growth at 0.5 uM by SRB assay; conditions: read-out: Activity
HOP-92 [22] = experiment: Antiproliferative activity against human HOP92 cells assessed as cell growth at 5 uM by SRB assay; conditions: read-out: Activity
NCI-H226 = experiment: Antiproliferative activity against human NCI-H226 cells assessed as cell growth at 5 uM by SRB assay; conditions: read-out: Activity
NCI-H460 = experiment: Antiproliferative activity against human NCI-H460 cells assessed as cell growth at 5 uM by SRB assay; conditions: read-out: Activity
[23] = read-out: LC50 (the source's name)
[24] = read-out: pLC50 (the source's name) (converted)

O=C(/C=C/c1ccc(O)c(O)c1)OCCc1ccc(O)c(O)c1
growth at 50 µM (HOP-92 [1]): 55% | growth at 50 µM (SNB-19): 94% | growth at 50 µM (LOX IMVI [2]): 98% | growth at 50 µM (Malme-3M [3]): 102% | growth at 50 µM (IGROV-1): 98% | growth at 5 µM (SF-268 [4]): 91% | growth at 5 µM (LOX IMVI [5]): 101% | growth at 5 µM (A498 [6]): 81% | growth at 50 µM (TK-10): 94% | growth at 50 µM (DU-145 [7]): 100% | growth at 50 µM (MCF7): 92% | growth at 50 µM [8]: 80% | growth at 50 µM (MDA-MB-435 [9]): 89% | growth at 500 µM (ACHN): 38% | growth at 500 µM (DU-145 [10]): 80% | growth at 500 µM (MDA-MB-231): 85% | growth at 5 µM (BT-549): 100% | growth at 50 µM (CCRF-CEM): 60% | growth at 50 µM (K562): 90% | growth at 5000 µM (SW-620): 19% | growth at 500 µM (U-251 [11]): 65% | growth at 500 µM (LOX IMVI [12]): 57% | growth at 500 µM (Malme-3M [13]): 74% | Activity (OVCAR-5): 97% | GI50 (NCI-H23; read-out: GI50): 11.6 µM | CC50 (NCI-H23; [23]): > 50 µM | TGI (NCI-H23; read-out: TGI): > 50 µM | GI50 (NCI-H23; read-out: pGI50 (converted)): 11.5 µM | CC50 (NCI-H23; [24]): > 50.1 µM | TGI (NCI-H23; read-out: pTGI): > 50.1 µM | GI50 (COLO 205; read-out: GI50): 18.8 µM | CC50 (COLO 205; [23]): > 50 µM | TGI (COLO 205; read-out: TGI): > 50 µM | GI50 (COLO 205; read-out: pGI50 (converted)): 18.6 µM | CC50 (COLO 205; [24]): > 50.1 µM | TGI (COLO 205; read-out: pTGI): > 50.1 µM | GI50 (HCT-15; read-out: GI50): 2.25 µM | CC50 (HCT-15; [23]): > 50 µM | TGI (HCT-15; read-out: TGI): > 50 µM | GI50 (HCT-15; read-out: pGI50 (converted)): 1.41 µM | CC50 (HCT-15; [24]): > 50.1 µM | TGI (HCT-15; read-out: pTGI): > 50.1 µM | GI50 (SF-268 [14]; read-out: GI50): 6.93 µM | CC50 (SF-268 [14]; [23]): > 50 µM | TGI (SF-268 [14]; read-out: TGI): > 50 µM | GI50 (SF-268 [14]; read-out: pGI50 (converted)): 6.61 µM | CC50 (SF-268 [14]; [24]): > 50.1 µM | TGI (SF-268 [14]; read-out: pTGI): > 50.1 µM | GI50 (SF-295; read-out: GI50): 16.1 µM | CC50 (SF-295; [23]): > 50 µM | TGI (SF-295; read-out: TGI): > 50 µM | GI50 (SF-295; read-out: pGI50 (converted)): 16.2 µM | CC50 (SF-295; [24]): > 50.1 µM | TGI (SF-295; read-out: pTGI): > 50.1 µM | GI50 (A498 [15]; read-out: GI50): 8.05 µM | CC50 (A498 [15]; [23]): > 50 µM | TGI (A498 [15]; read-out: TGI): 36.1 µM | GI50 (A498 [15]; read-out: pGI50 (converted)): 8.13 µM | CC50 (A498 [15]; [24]): > 50.1 µM | TGI (A498 [15]; read-out: pTGI (converted)): 36.3 µM | GI50 ([16]; read-out: GI50): 9.75 µM | CC50 [16, 23]: > 50 µM | TGI ([16]; read-out: TGI): > 50 µM | GI50 ([16]; read-out: pGI50 (converted)): 9.77 µM | CC50 [16, 24]: > 50.1 µM | TGI ([16]; read-out: pTGI): > 50.1 µM | growth at 0.5 µM (SK-MEL-28): 97% | growth at 0.5 µM (786-0): 97% | growth at 0.5 µM (CAKI-1): 82% | growth at 0.5 µM (DU-145 [17]): 102% | growth at 0.5 µM [18]: 86% | growth at 0.5 µM (HCC 2998): 93% | growth at 0.5 µM (SF-268 [19]): 94% | growth at 0.5 µM (U-251 [20]): 102% | growth at 0.5 µM (MDA-MB-435 [21]): 99% | growth at 5 µM (HOP-92 [22]): 60% | growth at 5 µM (NCI-H226): 99% | growth at 5 µM (NCI-H460): 92%
